According to ChEMBL document CHEMBL1201862, “PubChem BioAssay data set” (2004):
Active and inactive are the calls of the source.

Experiments:
SUMO-activating enzyme = SUMO-activating enzyme (Homo sapiens, UniProt Q9UBT2); assay: blockers of UBC9-mediated SUMO conjugation – biochemical, AlphaScreen, SUMOylation inhibitor project, confirmation (AID 2018); type: functional
cells [1] = conditions: A549
[2] = biological target: Metabotropic glutamate receptor 5 (Rattus norvegicus, UniProt P31424); assay: Identification of a glycine sulfonamide based non-MPEP site positive allosteric potentiator (PAM) of mGlu5 (calcium_assay).; type: functional
cells [3] = assay: cells
Major prion protein = Major prion protein (Homo sapiens, UniProt P04156); type: functional, cell-based
Kallikrein-7 = Kallikrein-7 (Homo sapiens, UniProt P49862); assay: Fluorescence Intensity-based biochemical primary high throughput dose response assay to identify activators of kallikrein-7 (K7) zymogen.
[4] = test system: Streptococcus sp. 'group A'; assay: Streptococcus pyogenes SK(-)GAS viability under kanamycin – luminescence, BacTiterGlo, confirmation, counter-screen for streptokinase expression inhibitor project, dose response (AID 1900); type: functional, organism-based
cells [5] = conditions: HEK293
Streptokinase A = biological target: T1, Streptokinase A (Streptococcus pyogenes serotype M1, UniProt P10520); assay: viability-normalized secreted streptokinase activity reduction – plasminogen activation absorbance, OD405, dose response (AID 1914); type: functional, Streptococcus pyogenes M1 GAS;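 further: secreted streptokinase activity via plasminogen activation per viability signal from cell pellet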
T1 sequence (P10520 whole entry): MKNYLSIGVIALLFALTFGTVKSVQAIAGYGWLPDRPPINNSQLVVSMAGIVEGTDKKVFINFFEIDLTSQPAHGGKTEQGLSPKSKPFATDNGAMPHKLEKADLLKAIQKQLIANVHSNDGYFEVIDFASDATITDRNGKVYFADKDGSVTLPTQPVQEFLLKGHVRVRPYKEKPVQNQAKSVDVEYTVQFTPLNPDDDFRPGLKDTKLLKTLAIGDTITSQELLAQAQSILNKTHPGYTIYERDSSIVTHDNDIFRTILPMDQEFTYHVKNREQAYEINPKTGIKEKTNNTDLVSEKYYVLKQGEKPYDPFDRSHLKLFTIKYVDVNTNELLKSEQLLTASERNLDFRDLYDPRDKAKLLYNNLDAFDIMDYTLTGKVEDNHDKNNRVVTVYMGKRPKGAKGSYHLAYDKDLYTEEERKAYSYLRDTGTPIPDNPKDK

Streptococcus = assay: GAS UMAA2166 growth inhibition – luminescence, BacTiterGlo, counter-screen for streptokinase expression inhibitor project, dose response (AID 1915); type: functional, organism-based;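 further: potency for reduction of bacterial viability or growth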
[6] = biological target: Metabotropic glutamate receptor 3 (Rattus norvegicus, UniProt P31422); assay: inhibitors of rat mGlu3 Galpha15 signaling – TREx293 cells, calcium flux, mGlu3 NAM project, dose response (AID 651840); type: functional
Galanin receptor type 3 = Galanin receptor type 3 (Homo sapiens, UniProt O60755); assay: Fluorescence-based cell-based primary high throughput dose response assay to identify antagonists of the Galanin Receptor 3 (GalR3).; type: functional
[7] = biological target: COUP transcription factor 2 (Homo sapiens, UniProt P24468); assay: Luminescence-based cell-based high throughput dose response assay to identify inhibitors of COUP-TFII (NR2F2).; type: functional;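 further: HEK293 cells transiently cotransfected with COUP-TFII expression vector and reporter; luciferase reporter luminescence driven by COUP-TFII from the pX2-168 reporter plasmid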
cells [8] = type: functional, cell-based; conditions: HEK-CNG
[9] = MITF Measured in Cell-Based System Using Plate Reader - 2084-01_Inhibitor_Dose_DryPowder_Activity_Set6.; type: functional
[10] = viability loss in MITF-independent A375 cells – cell-based, CellTiter-Glo luminescence, dry powder, set 7, counter-screen for MITF inhibitor project, dose response (AID 624490); type: functional; conditions: A-375
[11] = cytotoxicity in MITF-independent A375 cells – cell-based, CellTiter-Glo luminescence, dry powder, set 4, counter-screen for MITF inhibitor project, dose response (AID 624364); type: functional; conditions: A-375;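 further: A375 melanoma cells are MITF independent so this is a counter screen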
[12] = growth inhibition of MALME3 cells – cell-based, CellTiter-Glo luminescence, dry powder, set 5, orthogonal assay for MITF inhibitor project, dose response (AID 651584); type: functional; conditions: MALME-3
[13] = melanocyte viability loss, MITF-dependent cells, cell-based, plate reader, dry powder, cytotoxicity control, dose response (AID 651920); type: functional
[14] = MITF Measured in Cell-Based System Using Plate Reader - 2084-01_Inhibitor_Dose_DryPowder_Activity_Set7.; type: functional
[15] = MITF Orthogonal Assay: SK-MEL-5 CTG Assay Measured in Cell-Based System Using Plate Reader - 2084-02_Inhibitor_Dose_DryPowder_Activity_Set5.; type: functional
[16] = cytotoxicity in melanoma parental cells – cell-based, CellTiter-Glo, dry powder, set 6, MITF inhibitor project, dose response (AID 624429); type: functional; conditions: SK-MEL-5
[17] = growth inhibition of SK-MEL-5 melanoma cells – cell-based, CellTiter-Glo luminescence, dry powder, set 8, orthogonal assay for MITF inhibitor project, dose response (AID 651586); type: functional
[18] = inhibitors of TRPM1-promoter reporter in SK-MEL-5 – cell-based, luciferase, dry powder, set 9, MITF inhibitor project, dose response (AID 651588); type: functional
[19] = MITF Orthogonal Assay: MALME3 CTG Assay Measured in Cell-Based System Using Plate Reader - 2084-04_Inhibitor_Dose_DryPowder_Activity_Set6.; type: functional; conditions: MALME-3

Cn1cccc1/C=N/NC(=O)c1sc2cc(Cl)ccc2c1Cl
IC50 (SUMO-activating enzyme): > 100 µM (inactive)
AC50 (cells [1]): 43.7 µM (active)

CC(C(=O)Nc1ccncc1)N(c1ccccc1Cl)S(C)(=O)=O (stereo not given)
EC50 [2]: > 30 µM (inactive)

O=C(O)CSc1ncnc2scc(-c3ccccc3)c12
IC50 (cells [3]): > 138 µM (inactive)
IC50 (Major prion protein): 5.04 µM (active)

CN1CCSc2ccc(C(=O)NCc3cccc(F)c3)cc21
EC50 (Kallikrein-7): > 69.5 µM (inactive)

CC(C)(C)[C@H]1CCC(=O)N([C@H](CSc2ccccc2)Cc2ccccc2)CC1
EC50 [4]: 7.1 µM (active)
AC50 (cells [5]): > 52 µM (inactive)
EC50 (Streptokinase A): 23.2 µM (active)
EC50 (Streptococcus): 10.3 µM (active)

COc1ccc(C#Cc2ccc(C(=O)N3CCCC(=O)C3)cc2)cc1
IC50 [6]: 2.71 µM

OC[C@@H]1CN(Cc2ccc(-c3ccccc3)cc2)C[C@H](n2cnc3c(NC4CCCC4)ncnc32)O1
IC50 (Galanin receptor type 3): 0.349 µM (active)
IC50 [7]: 6.28 µM (active)
EC50 (cells [8]): > 29.9 µM (inactive)

O=C1C=C(NS(=O)(=O)c2ccc(Br)cc2)C(=O)c2ccccc21
AC50 [9]: 6.37 µM (active)
AC50 [10]: > 70 µM (inactive)
AC50 [11]: > 70 µM (inactive)
AC50 [12]: 24.4 µM (active)
AC50 [13]: 14.5 µM (active)
AC50 [14]: 7.45 µM (active)
AC50 [15]: 13.1 µM (active)
AC50 [16]: 11.2 µM (active)
AC50 [17]: 11.8 µM (active)
AC50 [18]: 18.8 µM (active)
AC50 [19]: 24.4 µM (active)
